Like-named read-outs stand apart in the source and are kept apart here.
Experiments:
[1] = molecular target: T1, rBmAChE II (recombinant Bombyx mori type II acetylcholinesterase) (Bombyx mori, UniProt B0FGT2, Y398F); details: crude enzyme supernatant; substrate acetylthiocholine iodide (ATChI), DTNB, 50 mM phosphate, 37 °C; covalent
T1 construct: gene ace2

[2] = molecular target: T2, rBmAChE II (recombinant Bombyx mori type II acetylcholinesterase) (Bombyx mori, UniProt B0FGT2); experiment: Ellman assay inhibition; assay type: biochemical; details: crude enzyme supernatant; substrate acetylthiocholine iodide (ATChI), DTNB, 50 mM phosphate, 37 °C; covalent
T2 construct: gene ace2; predicted N-terminal signal peptide removed, codon-optimized, pPIC9K in Pichia pastoris GS115, secreted; crude culture supernatant; 604 residues
Excerpt: Ellman assay inhibition on rBmAChE II (recombinant Bombyx mori type II acetylcholinesterase) | inhibition of rBmAChE II mutants by various pesticides (malathion, methomyl, carbaryl, and carbofuran-3-hydroxy)

[3] = molecular target: T3, rBmAChE II (recombinant Bombyx mori type II acetylcholinesterase) (Bombyx mori, UniProt B0FGT2, Y398W); details: crude enzyme supernatant, substrate acetylthiocholine iodide (ATChI), DTNB, 50 mM phosphate, 37 °C, covalent
T3 construct: gene ace2

[4] = molecular target: T4, rBmAChE II (recombinant Bombyx mori type II acetylcholinesterase) (Bombyx mori, UniProt B0FGT2, Y398G); details: crude enzyme supernatant; substrate acetylthiocholine iodide (ATChI), DTNB, 50 mM phosphate, 37 °C; covalent
T4 construct: gene ace2

[5] = molecular target: T2, rBmAChE II (recombinant Bombyx mori type II acetylcholinesterase); assay type: biochemical; details: 30 µL (printed 30 mL) of 0.1 mg/mL physostigmine, 10 min preincubation at 37 °C; crude enzyme supernatant; ATChI substrate, DTNB, 50 mM phosphate

T3 sequence (B0FGT2 entry or part of it Y398W): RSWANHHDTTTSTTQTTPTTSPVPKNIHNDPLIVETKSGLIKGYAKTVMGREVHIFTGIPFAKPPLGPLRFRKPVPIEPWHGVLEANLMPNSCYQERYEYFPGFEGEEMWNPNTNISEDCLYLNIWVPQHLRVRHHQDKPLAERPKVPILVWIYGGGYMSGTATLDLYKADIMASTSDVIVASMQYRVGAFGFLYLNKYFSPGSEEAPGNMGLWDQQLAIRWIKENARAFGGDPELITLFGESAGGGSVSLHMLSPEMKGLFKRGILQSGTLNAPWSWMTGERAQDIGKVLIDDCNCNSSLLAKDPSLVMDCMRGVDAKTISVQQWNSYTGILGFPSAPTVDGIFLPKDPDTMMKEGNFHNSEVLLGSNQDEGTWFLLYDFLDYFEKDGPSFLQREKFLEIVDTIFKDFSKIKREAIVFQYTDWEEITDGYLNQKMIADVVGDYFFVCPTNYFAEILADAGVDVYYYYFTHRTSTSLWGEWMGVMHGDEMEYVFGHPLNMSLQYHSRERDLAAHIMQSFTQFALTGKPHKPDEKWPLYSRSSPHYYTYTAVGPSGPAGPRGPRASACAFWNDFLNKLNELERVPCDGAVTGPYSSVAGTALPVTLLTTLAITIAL
T1 sequence (B0FGT2 entry or part of it Y398F): as the sequence (B0FGT2 entry or part of it Y398W) above, with W375F counted along it
T2 sequence (B0FGT2 entry or part of it): as the sequence (B0FGT2 entry or part of it Y398W) above, with W375Y counted along it
T4 sequence (B0FGT2 entry or part of it Y398G): as the sequence (B0FGT2 entry or part of it Y398W) above, with W375G counted along it

SMILES	IC50 [1] [nM]	IC50 [2] [nM]	IC50 [3] [nM]	IC50 [4] [nM]	Ellman assay, remaining activity [5]	IC50 ([3]; stated gain) [nM]
CNC(=O)ON=C(C)SC [methomyl]	470	750	4380			
CNC(=O)Oc1cccc2ccccc12 [carbaryl]	21	33	16	56		
CNC(=O)Oc1ccc2c(c1)[C@]1(C)CCN(C)[C@@H]1N2C [physostigmine]					All four enzyme variants could be inhibited by physostigmine.	
CNC(=O)Oc1cccc2c1OC(C)(C)C2O (stereo not drawn) [carbofuran-3-hydroxy]	43	76	246	193		
CCOC(=O)CC(SP(=S)(OC)OC)C(=O)OCC (stereo not drawn) [malathion]	1130	2820				5430
